This passage reports pest or weed control results from patent publication US8680012B2, “4-phenyl-pyrane-3,5-diones,4-phenyl-thiopyrane-3,6-diones and cyclohexanetriones as novel herbicides” (Syngenta Crop Protection LLC, priority 2006, dated 2014).

Common to all, as to format: in vivo
Experiment [1] relates to Amaranthus retroflexus (AMARE). The experiment in a line: Example B pre-emergence herbicidal activity, glasshouse pot test. Conditions: 312 h, evaluated after 13 days, read-out: Pre-emergence activity AMARE (100=total damage to plant; 0=no damage to plant); for pest or weed control at 1000 g/ha: rate 1000 g/ha; for pest or weed control at 250 g/ha: rate 250 g/ha. A digest of the protocol: (§1)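 Herbicidal effect was judged 13 days after treatment as percent-style damage (100 = total kill). Seeds in standard soil had grown 1 day (pre) or 8 days (post) in a 24/16 °C, 14 h light, 65% humidity glasshouse before spraying with compound in acetone/water (50:50) containing 0.5% Tween 20.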

Experiment [2] deals with Echinochloa crus-galli (ECHCG). The description is as above. The note with it: 312 h, evaluated after 13 days, read-out: Pre-emergence activity ECHCG (100=total damage to plant; 0=no damage to plant); for pest or weed control at 1000 g/ha: rate 1000 g/ha; for pest or weed control at 250 g/ha: rate 250 g/ha. A digest of the protocol: as §1
Experiment [3] concerns Avena fatua (AVEFA). The description is as above. The note with it: 312 h, evaluated after 13 days, read-out: Pre-emergence activity AVEFA (100=total damage to plant; 0=no damage to plant); for pest or weed control at 1000 g/ha: rate 1000 g/ha; for pest or weed control at 250 g/ha: rate 250 g/ha. Summed up:
as §1

For experiment [4], the system named is Alopecurus myosuroides (ALOMY). The experiment is described as above. The note with it: 312 h, evaluated after 13 days, read-out: Pre-emergence activity ALOMY (100=total damage to plant; 0=no damage to plant); for pest or weed control at 1000 g/ha: rate 1000 g/ha; for pest or weed control at 250 g/ha: rate 250 g/ha. A digest of the protocol:
as §1

The subject of experiment [5] is Setaria faberi (SETFA). The description is as above. Conditions: 312 h, evaluated after 13 days, read-out: Pre-emergence activity SETFA (100=total damage to plant; 0=no damage to plant); for pest or weed control at 1000 g/ha: rate 1000 g/ha; for pest or weed control at 250 g/ha: rate 250 g/ha. Summed up: as §1
In experiment [6] the test system is Solanum nigrum (SOLNI). The experiment is described as above. The note with it: 312 h, evaluated after 13 days, read-out: Pre-emergence activity SOLNI (100=total damage to plant; 0=no damage to plant); for pest or weed control at 1000 g/ha: rate 1000 g/ha; for pest or weed control at 250 g/ha: rate 250 g/ha. Summed up:
as §1

Experiment [7] concerns Amaranthus retroflexus (AMARE). The experiment is described as follows: Example B post-emergence herbicidal activity, glasshouse pot test. The note with it: 312 h, evaluated after 13 days, read-out: Post-emergence activity AMARE (100=total damage to plant; 0=no damage to plant); for pest or weed control at 1000 g/ha: rate 1000 g/ha; for pest or weed control at 250 g/ha: rate 250 g/ha. A digest of the protocol:
as §1

In experiment [8] the test system is Echinochloa crus-galli (ECHCG). The description is as above. Conditions: 312 h, evaluated after 13 days, read-out: Post-emergence activity ECHCG (100=total damage to plant; 0=no damage to plant); for pest or weed control at 1000 g/ha: rate 1000 g/ha; for pest or weed control at 250 g/ha: rate 250 g/ha. Summed up:
as §1

Experiment [9] relates to Avena fatua (AVEFA). The experiment is described as above. The note with it: 312 h, evaluated after 13 days, read-out: Post-emergence activity AVEFA (100=total damage to plant; 0=no damage to plant); for pest or weed control at 1000 g/ha: rate 1000 g/ha; for pest or weed control at 250 g/ha: rate 250 g/ha. Summed up:
as §1

In experiment [10] the test system is Alopecurus myosuroides (ALOMY). Described as above. The note with it: 312 h, evaluated after 13 days, read-out: Post-emergence activity ALOMY (100=total damage to plant; 0=no damage to plant); for pest or weed control at 1000 g/ha: rate 1000 g/ha; for pest or weed control at 250 g/ha: rate 250 g/ha. Summed up: as §1
The subject of experiment [11] is Setaria faberi (SETFA). Described as above. The note with it: 312 h, evaluated after 13 days, read-out: Post-emergence activity SETFA (100=total damage to plant; 0=no damage to plant); for pest or weed control at 1000 g/ha: rate 1000 g/ha; for pest or weed control at 250 g/ha: rate 250 g/ha. A digest of the protocol: as §1
Experiment [12] deals with Solanum nigrum (SOLNI). The experiment is described as above. The note with it: 312 h, evaluated after 13 days, read-out: Post-emergence activity SOLNI (100=total damage to plant; 0=no damage to plant); for pest or weed control at 1000 g/ha: rate 1000 g/ha; for pest or weed control at 250 g/ha: rate 250 g/ha. A digest of the protocol: as §1

As for `Cc1ccc(-c2cccc(C(F)(F)F)c2)cc1C1=C(O)C(C)(C)OC(C)(C)C1=O` [Compound A-15], the pest or weed control at 1000 g/ha stood at 100% in experiment [1]; 100% in experiment [2]; 50% in the experiment with Avena fatua (AVEFA) [3]; 50% in experiment [4]; 50% in the experiment on Setaria faberi (SETFA) [5]; 100% in the experiment on Solanum nigrum (SOLNI) [6]. The pest or weed control at 1000 g/ha worked out at 90% in experiment [7]; 50% in [8]; 20% with Avena fatua (AVEFA) [9]; 10% in experiment [10]; 10% in the experiment on Setaria faberi (SETFA) [11]; 10% in the experiment with Solanum nigrum (SOLNI) [12].
In the case of `CCc1ccc(-c2ccc(Cl)c(C#N)c2)cc1C1=C(O)C(C)(C)C(=O)C(C)(C)C1=O` [Compound B-27], the pest or weed control at 250 g/ha (in experiment [1]; in experiment [2]; in the experiment on Avena fatua (AVEFA) [3]; in [4]; in the experiment on Setaria faberi (SETFA) [5]; in the experiment on Solanum nigrum (SOLNI) [6]) was 0% in each case. Moreover, the pest or weed control at 250 g/ha in [7] came to 0%; in experiment [8], 80%; in the experiment on Avena fatua (AVEFA) [9], 0%; in experiment [10], 70%; in the experiment with Setaria faberi (SETFA) [11], 60%; in the experiment with Solanum nigrum (SOLNI) [12], 0%.
On to `Cc1ccc(-c2ccc(F)c(F)c2)cc1C1=C(O)C(C)(C)OC(C)(C)C1=O` [Compound A-24], for which the pest or weed control at 1000 g/ha in experiment [1] came to 20%; in experiment [2], 100%; in the experiment on Avena fatua (AVEFA) [3], 60%; in experiment [4] it was 80%; with Setaria faberi (SETFA) [5], 90%; in the experiment with Solanum nigrum (SOLNI) [6], 20%. The pest or weed control at 1000 g/ha in experiment [7] stood at 90%; in [8], 100%; in the experiment on Avena fatua (AVEFA) [9] it was 80%; in experiment [10] it was 100%; in the experiment on Setaria faberi (SETFA) [11], 100%; in the experiment on Solanum nigrum (SOLNI) [12], 70%.
Take `CCc1ccc(-c2ccc(Cl)cc2Cl)cc1C1=C(O)C(C)(C)C(=O)C(C)(C)C1=O` [Compound B-13]: the pest or weed control at 250 g/ha in experiment [1] came out at 0%; in experiment [2], 30%; in the experiment with Avena fatua (AVEFA) [3], 20%; in experiment [4] it was 0%; in the experiment with Setaria faberi (SETFA) [5], 20%; in the experiment on Solanum nigrum (SOLNI) [6], 0%. The pest or weed control at 250 g/ha in experiment [7] worked out at 20%; in experiment [8], 80%; in the experiment with Avena fatua (AVEFA) [9], 30%; in experiment [10] it was 0%; with Setaria faberi (SETFA) [11] it was 90%; with Solanum nigrum (SOLNI) [12], 0%.
For the compound `CCOC(=O)OC1=C(c2cc(-c3ccc(Cl)cc3)ccc2CC)C(=O)C(C)(C)OC1(C)C` [Compound D-13], the pest or weed control at 1000 g/ha in experiment [1] stood at 0%; in experiment [2] it was 90%; with Avena fatua (AVEFA) [3] it was 20%; in experiment [4], 50%; in the experiment on Setaria faberi (SETFA) [5] it was 90%; in the experiment on Solanum nigrum (SOLNI) [6] it was 0%. For the same compound, the pest or weed control at 1000 g/ha was 0% in experiment [7]; 100% in experiment [8]; 0% with Avena fatua (AVEFA) [9]; 60% in experiment [10]; 100% in the experiment on Setaria faberi (SETFA) [11]; 0% in the experiment on Solanum nigrum (SOLNI) [12].
Consider `Cc1ccc(-c2cc(F)c(F)c(F)c2)cc1C1=C(O)C(C)(C)OC(C)(C)C1=O` [Compound A-31], for which the pest or weed control at 1000 g/ha in experiment [1] was 0%; in experiment [2], 100%; in the experiment on Avena fatua (AVEFA) [3] it was 0%; in [4] it was 50%; in the experiment with Setaria faberi (SETFA) [5], 100%; in the experiment with Solanum nigrum (SOLNI) [6], 0%. The pest or weed control at 1000 g/ha in experiment [7] was 0%; in [8], 100%; with Avena fatua (AVEFA) [9] it was 90%; in experiment [10], 100%; with Setaria faberi (SETFA) [11] it was 100%; in the experiment on Solanum nigrum (SOLNI) [12], 60%.
As for `CCc1ccc(-c2ccc(Cl)c(F)c2)cc1C1=C(O)C(C)(C)C(=O)C(C)(C)C1=O` [Compound B-12], the pest or weed control at 250 g/ha in [1] was 0%; in experiment [2] it was 30%; with Avena fatua (AVEFA) [3], 0%; in experiment [4], 0%; in the experiment on Setaria faberi (SETFA) [5] it was 50%; in the experiment with Solanum nigrum (SOLNI) [6], 0%. Moreover, the pest or weed control at 250 g/ha is 30% in [7]; 100% in experiment [8]; 0% with Avena fatua (AVEFA) [9]; 60% in experiment [10]; 90% in the experiment on Setaria faberi (SETFA) [11]; 0% with Solanum nigrum (SOLNI) [12].
As for `CCc1ccc(-c2ccc(Cl)cc2)cc1C1=C(OC(=O)C(C)(C)OC)C(C)(C)OC(C)(C)C1=O` [Compound D-20], the pest or weed control at 1000 g/ha in [1] came out at 0%; in experiment [2] it was 60%; in the experiment on Avena fatua (AVEFA) [3], 0%; in [4], 30%; with Setaria faberi (SETFA) [5], 90%; in the experiment with Solanum nigrum (SOLNI) [6], 0%. Besides, the pest or weed control at 1000 g/ha in experiment [7] turned out to be 20%; in experiment [8] it was 100%; with Avena fatua (AVEFA) [9], 90%; in experiment [10] it was 100%; in the experiment with Setaria faberi (SETFA) [11], 100%; with Solanum nigrum (SOLNI) [12] it was 0%.
For the compound `Cc1ccc(-c2ccc(C#N)cc2)cc1C1=C(O)C(C)(C)OC(C)(C)C1=O` [Compound A-20], the pest or weed control at 1000 g/ha worked out at 0% in [1]; 100% in experiment [2]; 60% with Avena fatua (AVEFA) [3]; 90% in [4]; 100% with Setaria faberi (SETFA) [5]; 40% in the experiment on Solanum nigrum (SOLNI) [6]. Moreover, the pest or weed control at 1000 g/ha was 20% in experiment [7]; 100% in experiment [8]; 90% with Avena fatua (AVEFA) [9]; 90% in experiment [10]; 100% with Setaria faberi (SETFA) [11]; 80% in the experiment on Solanum nigrum (SOLNI) [12].
